Results published in ChEMBL document CHEMBL3991601, “The target landscape of clinical kinase drugs” (Science, 2017).
Active and inactive are the calls of the source. Cut-off read from the data, not from the text of the source, for most assays here: actives have a measured Kd and inactives only a lower limit.

What was measured:
[1] = biological target: Cyclin-dependent kinase 6 (Homo sapiens, UniProt Q00534)
[2] = biological target: T1, ADP/ATP translocase 3 (Homo sapiens, UniProt P12236)
T1 sequence (P12236 whole entry): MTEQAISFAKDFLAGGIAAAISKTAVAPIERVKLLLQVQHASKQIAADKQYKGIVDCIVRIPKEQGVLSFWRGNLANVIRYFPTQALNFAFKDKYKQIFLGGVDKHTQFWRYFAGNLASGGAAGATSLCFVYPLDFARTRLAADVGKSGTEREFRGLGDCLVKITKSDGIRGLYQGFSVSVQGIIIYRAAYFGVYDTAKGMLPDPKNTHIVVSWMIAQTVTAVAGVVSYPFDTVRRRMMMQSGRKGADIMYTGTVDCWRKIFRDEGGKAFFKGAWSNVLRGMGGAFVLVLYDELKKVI

[3] = biological target: Tyrosine-protein kinase JAK1 (Homo sapiens, UniProt P23458)
[4] = biological target: T2, Serine/threonine-protein kinase D2 (Homo sapiens, UniProt Q9BZL6)
T2 sequence (Q9BZL6 whole entry): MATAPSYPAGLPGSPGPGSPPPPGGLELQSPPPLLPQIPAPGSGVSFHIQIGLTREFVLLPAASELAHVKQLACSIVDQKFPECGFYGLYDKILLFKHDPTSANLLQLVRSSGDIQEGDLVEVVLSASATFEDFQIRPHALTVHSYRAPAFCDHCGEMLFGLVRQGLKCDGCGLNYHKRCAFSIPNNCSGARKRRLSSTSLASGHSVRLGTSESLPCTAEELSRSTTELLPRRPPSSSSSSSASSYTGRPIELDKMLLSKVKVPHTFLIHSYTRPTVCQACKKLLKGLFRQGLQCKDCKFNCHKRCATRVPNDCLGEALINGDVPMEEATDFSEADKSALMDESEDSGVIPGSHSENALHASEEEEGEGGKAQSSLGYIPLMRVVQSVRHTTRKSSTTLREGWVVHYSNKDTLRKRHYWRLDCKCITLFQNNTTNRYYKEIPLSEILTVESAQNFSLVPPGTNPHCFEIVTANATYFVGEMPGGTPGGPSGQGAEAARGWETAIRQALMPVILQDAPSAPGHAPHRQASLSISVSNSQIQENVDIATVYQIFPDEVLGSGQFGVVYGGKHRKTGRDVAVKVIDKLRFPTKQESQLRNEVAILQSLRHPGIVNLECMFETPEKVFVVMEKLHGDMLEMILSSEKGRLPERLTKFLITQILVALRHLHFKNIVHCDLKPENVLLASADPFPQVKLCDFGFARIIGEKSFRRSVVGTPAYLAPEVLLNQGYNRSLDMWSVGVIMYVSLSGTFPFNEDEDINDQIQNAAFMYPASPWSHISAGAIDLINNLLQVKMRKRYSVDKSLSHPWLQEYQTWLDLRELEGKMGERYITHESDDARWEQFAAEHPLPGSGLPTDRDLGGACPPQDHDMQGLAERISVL

[5] = biological target: T3, Heme oxygenase 2 (Homo sapiens, UniProt P30519)
T3 sequence (P30519 whole entry): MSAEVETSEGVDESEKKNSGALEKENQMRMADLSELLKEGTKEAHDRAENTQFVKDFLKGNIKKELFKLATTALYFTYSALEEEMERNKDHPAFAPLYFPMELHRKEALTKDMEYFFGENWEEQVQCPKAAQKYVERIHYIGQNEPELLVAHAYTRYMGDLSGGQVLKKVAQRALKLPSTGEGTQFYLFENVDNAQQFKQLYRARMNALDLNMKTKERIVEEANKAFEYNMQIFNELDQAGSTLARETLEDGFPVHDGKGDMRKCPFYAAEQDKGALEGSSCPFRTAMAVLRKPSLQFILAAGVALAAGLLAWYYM

[6] = biological target: Serine/threonine-protein kinase SIK2 (Homo sapiens, UniProt Q9H0K1)
[7] = biological target: Ephrin type-A receptor 5 (Homo sapiens, UniProt P54756)
[8] = biological target: T4, Ras-related protein Rab-10 (Homo sapiens, UniProt P61026)
T4 sequence (P61026 whole entry): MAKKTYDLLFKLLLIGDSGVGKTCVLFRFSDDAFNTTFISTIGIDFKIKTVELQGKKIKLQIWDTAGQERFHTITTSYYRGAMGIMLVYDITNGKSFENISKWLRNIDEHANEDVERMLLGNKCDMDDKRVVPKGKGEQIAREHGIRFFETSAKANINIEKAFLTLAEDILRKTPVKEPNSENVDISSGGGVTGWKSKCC

[9] = biological target: TGF-beta receptor type-2 (Homo sapiens, UniProt P37173)
[10] = biological target: T5, Serine/threonine-protein kinase Nek9 (Homo sapiens, UniProt Q8TD19)
T5 sequence (Q8TD19 whole entry): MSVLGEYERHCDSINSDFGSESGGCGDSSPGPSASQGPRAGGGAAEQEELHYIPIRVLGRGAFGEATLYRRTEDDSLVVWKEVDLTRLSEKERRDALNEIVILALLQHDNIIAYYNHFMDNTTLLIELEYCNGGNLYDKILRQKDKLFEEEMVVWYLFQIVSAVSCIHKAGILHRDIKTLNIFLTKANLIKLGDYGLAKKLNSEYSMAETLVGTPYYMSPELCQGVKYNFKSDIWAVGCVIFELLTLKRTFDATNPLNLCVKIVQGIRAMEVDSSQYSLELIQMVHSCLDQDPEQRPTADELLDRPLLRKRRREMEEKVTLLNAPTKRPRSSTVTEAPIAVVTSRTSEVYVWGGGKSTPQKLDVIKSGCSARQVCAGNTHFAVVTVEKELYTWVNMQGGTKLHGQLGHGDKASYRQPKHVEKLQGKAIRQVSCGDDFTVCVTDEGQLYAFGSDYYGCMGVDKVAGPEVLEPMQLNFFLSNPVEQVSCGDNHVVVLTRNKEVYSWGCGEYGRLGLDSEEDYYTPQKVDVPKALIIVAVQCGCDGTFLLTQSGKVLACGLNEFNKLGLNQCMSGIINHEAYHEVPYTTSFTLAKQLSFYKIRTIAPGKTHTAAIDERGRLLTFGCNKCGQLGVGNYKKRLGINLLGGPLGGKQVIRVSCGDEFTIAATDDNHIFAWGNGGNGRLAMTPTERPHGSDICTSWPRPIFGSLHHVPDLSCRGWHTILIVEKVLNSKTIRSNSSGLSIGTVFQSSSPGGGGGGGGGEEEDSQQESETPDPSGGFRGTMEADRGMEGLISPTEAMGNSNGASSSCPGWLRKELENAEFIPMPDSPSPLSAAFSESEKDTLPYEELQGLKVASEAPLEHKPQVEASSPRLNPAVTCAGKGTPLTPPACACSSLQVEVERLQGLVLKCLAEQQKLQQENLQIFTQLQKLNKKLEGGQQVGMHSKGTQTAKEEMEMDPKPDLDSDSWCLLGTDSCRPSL

Measured: Kd
Note: in the data inactive means no Kd found up to 30 µM.

Chain of Serine/threonine-protein kinase SIK2 (Q9H0K1 whole entry): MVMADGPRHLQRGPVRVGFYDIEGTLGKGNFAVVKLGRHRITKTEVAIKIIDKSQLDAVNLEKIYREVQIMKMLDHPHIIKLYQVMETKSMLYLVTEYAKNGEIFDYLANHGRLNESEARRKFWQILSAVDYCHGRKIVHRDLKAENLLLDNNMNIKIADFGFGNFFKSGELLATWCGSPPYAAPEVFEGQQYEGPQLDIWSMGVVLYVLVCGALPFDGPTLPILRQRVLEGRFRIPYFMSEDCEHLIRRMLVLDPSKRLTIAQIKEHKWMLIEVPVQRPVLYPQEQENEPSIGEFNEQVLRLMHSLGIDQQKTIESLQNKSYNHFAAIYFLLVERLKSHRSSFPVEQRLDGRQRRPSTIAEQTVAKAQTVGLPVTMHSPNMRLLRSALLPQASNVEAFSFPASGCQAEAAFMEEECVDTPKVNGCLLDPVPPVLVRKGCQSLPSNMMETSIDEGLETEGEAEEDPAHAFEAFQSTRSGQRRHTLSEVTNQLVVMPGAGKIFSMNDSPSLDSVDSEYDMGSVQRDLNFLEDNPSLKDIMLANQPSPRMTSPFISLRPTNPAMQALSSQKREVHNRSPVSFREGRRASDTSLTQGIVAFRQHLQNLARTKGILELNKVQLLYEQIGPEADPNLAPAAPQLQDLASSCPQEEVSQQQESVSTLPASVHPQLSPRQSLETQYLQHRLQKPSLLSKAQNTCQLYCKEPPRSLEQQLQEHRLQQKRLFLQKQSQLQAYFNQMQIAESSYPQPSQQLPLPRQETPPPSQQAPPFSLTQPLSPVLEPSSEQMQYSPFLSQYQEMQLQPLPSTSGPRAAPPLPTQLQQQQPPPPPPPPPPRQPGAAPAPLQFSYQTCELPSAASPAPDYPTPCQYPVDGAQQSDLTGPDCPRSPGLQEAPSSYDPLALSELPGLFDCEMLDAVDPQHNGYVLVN
Chain of Tyrosine-protein kinase JAK1 (P23458 whole entry): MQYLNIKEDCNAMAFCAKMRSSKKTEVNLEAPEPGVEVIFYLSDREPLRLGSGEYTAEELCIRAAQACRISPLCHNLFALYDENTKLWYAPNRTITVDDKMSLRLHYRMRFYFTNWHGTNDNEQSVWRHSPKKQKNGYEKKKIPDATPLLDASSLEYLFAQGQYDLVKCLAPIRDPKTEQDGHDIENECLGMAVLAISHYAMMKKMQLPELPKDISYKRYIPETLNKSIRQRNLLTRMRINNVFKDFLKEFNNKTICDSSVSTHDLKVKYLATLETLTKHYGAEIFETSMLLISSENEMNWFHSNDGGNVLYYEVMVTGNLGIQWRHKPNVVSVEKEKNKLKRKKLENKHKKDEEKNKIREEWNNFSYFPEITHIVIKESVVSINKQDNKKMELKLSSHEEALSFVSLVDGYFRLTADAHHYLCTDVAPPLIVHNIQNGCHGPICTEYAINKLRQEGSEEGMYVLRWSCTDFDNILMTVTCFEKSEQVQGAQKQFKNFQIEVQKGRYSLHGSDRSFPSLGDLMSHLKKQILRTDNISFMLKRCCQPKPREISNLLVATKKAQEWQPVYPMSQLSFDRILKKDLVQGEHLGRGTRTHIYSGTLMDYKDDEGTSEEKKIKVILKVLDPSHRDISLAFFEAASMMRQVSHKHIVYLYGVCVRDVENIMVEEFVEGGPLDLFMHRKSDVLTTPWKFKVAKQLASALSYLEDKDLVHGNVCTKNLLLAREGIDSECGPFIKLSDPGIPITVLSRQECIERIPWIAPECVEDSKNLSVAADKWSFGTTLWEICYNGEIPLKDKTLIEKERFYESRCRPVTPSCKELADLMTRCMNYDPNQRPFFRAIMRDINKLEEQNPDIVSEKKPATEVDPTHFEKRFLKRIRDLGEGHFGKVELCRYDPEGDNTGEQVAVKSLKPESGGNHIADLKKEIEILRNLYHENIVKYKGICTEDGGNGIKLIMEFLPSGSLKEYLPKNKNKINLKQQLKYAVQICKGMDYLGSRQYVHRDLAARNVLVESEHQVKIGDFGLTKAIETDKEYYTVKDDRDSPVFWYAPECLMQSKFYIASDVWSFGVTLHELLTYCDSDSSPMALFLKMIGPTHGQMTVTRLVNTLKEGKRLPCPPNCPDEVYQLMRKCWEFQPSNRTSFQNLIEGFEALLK
Chain of Cyclin-dependent kinase 6 (Q00534 whole entry): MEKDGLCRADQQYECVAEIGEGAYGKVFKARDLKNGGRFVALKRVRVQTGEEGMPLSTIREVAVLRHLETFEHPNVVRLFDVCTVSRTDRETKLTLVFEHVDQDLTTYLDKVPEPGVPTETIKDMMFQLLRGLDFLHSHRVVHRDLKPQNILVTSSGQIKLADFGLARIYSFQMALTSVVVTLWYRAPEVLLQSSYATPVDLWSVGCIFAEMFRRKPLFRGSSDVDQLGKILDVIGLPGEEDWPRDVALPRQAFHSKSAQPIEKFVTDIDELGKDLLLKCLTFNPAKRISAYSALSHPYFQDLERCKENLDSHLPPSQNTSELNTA
Chain of TGF-beta receptor type-2 (P37173 whole entry): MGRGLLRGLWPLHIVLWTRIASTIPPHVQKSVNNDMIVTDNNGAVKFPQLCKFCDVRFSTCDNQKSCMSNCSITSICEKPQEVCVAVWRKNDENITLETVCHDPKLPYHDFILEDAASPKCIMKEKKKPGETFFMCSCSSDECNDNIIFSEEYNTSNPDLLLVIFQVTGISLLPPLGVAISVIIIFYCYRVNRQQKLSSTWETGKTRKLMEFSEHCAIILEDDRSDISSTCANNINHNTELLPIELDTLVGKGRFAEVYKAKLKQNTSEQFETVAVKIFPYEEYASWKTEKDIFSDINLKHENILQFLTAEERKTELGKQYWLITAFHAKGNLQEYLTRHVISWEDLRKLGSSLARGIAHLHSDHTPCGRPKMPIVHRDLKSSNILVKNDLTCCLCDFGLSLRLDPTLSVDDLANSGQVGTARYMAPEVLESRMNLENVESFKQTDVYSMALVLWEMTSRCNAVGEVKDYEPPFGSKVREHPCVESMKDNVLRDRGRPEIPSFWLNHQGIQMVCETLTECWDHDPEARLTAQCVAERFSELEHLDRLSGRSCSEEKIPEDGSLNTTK
Chain of Ephrin type-A receptor 5 (P54756 whole entry): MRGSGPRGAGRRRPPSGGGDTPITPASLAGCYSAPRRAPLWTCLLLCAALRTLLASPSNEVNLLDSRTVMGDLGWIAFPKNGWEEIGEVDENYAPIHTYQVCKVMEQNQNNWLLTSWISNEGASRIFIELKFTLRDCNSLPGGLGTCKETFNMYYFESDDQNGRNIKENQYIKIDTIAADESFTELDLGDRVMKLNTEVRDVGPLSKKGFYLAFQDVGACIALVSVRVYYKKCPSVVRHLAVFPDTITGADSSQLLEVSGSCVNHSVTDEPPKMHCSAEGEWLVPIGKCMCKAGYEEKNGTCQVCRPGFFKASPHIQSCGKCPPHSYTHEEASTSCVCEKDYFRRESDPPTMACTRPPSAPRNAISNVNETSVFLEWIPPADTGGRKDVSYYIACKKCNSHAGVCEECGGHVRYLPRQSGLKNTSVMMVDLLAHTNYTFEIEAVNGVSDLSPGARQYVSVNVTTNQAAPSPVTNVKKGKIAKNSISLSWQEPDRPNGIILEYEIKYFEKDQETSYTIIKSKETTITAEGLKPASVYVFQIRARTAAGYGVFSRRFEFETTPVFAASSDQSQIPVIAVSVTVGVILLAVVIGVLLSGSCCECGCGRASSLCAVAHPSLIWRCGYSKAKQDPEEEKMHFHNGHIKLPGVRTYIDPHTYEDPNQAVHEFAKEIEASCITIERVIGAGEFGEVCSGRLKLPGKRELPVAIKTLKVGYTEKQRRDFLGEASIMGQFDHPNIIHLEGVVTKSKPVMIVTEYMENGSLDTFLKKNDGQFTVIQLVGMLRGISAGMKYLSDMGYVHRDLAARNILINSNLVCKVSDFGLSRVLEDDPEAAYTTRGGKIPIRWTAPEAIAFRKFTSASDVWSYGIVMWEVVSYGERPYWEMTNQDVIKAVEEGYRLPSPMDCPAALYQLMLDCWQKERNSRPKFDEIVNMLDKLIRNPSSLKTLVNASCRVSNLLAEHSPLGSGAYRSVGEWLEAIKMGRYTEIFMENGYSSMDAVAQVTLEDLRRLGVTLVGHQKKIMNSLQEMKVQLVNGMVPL

COc1cc2nccc(Oc3ccc(NC(=O)C4(C(=O)Nc5ccc(F)cc5)CC4)cc3)c2cc1OC [CABOZANTINIB]
inactive: [1] > 30 µM | [2] > 30 µM | [3] > 30 µM | [4] > 30 µM | [5] > 30 µM | [6] > 30 µM | [7] > 30 µM | [8] > 30 µM | [9] > 30 µM | [10] > 30 µM

Cc1cc(Nc2nc(N[C@@H](C)c3ncc(F)cn3)ncc2Cl)n[nH]1 [AZD-1480]
inactive: [1] > 30 µM | [2] > 30 µM | [3] > 30 µM | [4] > 30 µM | [5] > 30 µM | [6] > 30 µM | [7] > 30 µM | [8] > 30 µM | [9] > 30 µM | [10] > 30 µM

O=C(Nc1ccc(OC(F)(F)F)cc1)c1sccc1NCc1ccnc2ccccc12 [OSI-930]
inactive: [1] > 30 µM | [2] > 30 µM | [3] > 30 µM | [4] > 30 µM | [5] > 30 µM | [6] > 30 µM | [7] > 30 µM | [8] > 30 µM | [9] > 30 µM | [10] > 30 µM

C=CCN(/C=C1/C(=O)O[C@H](COC)[C@@]2(C)C1=C(O)C(=O)C1=C2[C@H](OC(C)=O)C[C@]2(C)C(=O)CC[C@@H]12)CC=C [SONOLISIB]
inactive: [1] > 30 µM | [2] > 30 µM | [3] > 30 µM | [4] > 30 µM | [5] > 30 µM | [6] > 30 µM | [7] > 30 µM | [8] > 30 µM | [9] > 30 µM | [10] > 30 µM

COc1cccc2cc(-c3nc([C@H]4CC[C@H](C(=O)O)CC4)n4ncnc(N)c34)[nH]c12 [OSI-027]
inactive: [1] > 30 µM | [2] > 30 µM | [3] > 30 µM | [4] > 30 µM | [5] > 30 µM | [6] > 30 µM | [7] > 30 µM | [8] > 30 µM | [9] > 30 µM | [10] > 30 µM

O=c1[nH]c([C@@H]2CCCN2)nc2c1oc1ccc(Cl)cc12
inactive: [1] > 30 µM | [2] > 30 µM | [3] > 30 µM | [4] > 30 µM | [5] > 30 µM | [6] > 30 µM | [7] > 30 µM | [8] > 30 µM | [9] > 30 µM | [10] > 30 µM

CN1CCN(c2nc(C3=C(c4c[nH]c5ccccc45)C(=O)NC3=O)c3ccccc3n2)CC1 [SOTRASTAURIN]
inactive: [1] > 30 µM | [2] > 30 µM | [3] > 30 µM | [4] > 30 µM | [5] > 30 µM | [6] > 30 µM | [7] > 30 µM | [8] > 30 µM | [9] > 30 µM | [10] > 30 µM

COc1ccc(-c2ccc3ncc4c(c3c2)n(-c2ccc(N3CCNCC3)c(C(F)(F)F)c2)c(=O)n4C)cn1 [BGT-226 FREE BASE]
inactive: [1] > 30 µM | [2] > 30 µM | [3] > 30 µM | [4] > 30 µM | [5] > 30 µM | [6] > 30 µM | [7] > 30 µM | [8] > 30 µM | [9] > 30 µM | [10] > 30 µM

Cc1c(Cn2c(C)nc3c(C(=O)O)cc(N4CCOCC4)cc32)cccc1C(F)(F)F [GSK-2636771]
inactive: [1] > 30 µM | [2] > 30 µM | [3] > 30 µM | [4] > 30 µM | [5] > 30 µM | [6] > 30 µM | [7] > 30 µM | [8] > 30 µM | [9] > 30 µM | [10] > 30 µM

Cc1cc(C(=O)Nc2cc(Oc3ccc4nc(NC(=O)C5CC5)cn4n3)ccc2C)n(C)n1 [TAK-593]
inactive: [1] > 30 µM | [2] > 30 µM | [3] > 30 µM | [4] > 30 µM | [5] > 30 µM | [6] > 30 µM | [7] > 30 µM | [8] > 30 µM | [9] > 30 µM | [10] > 30 µM
